# Measurements reported in patent publication US20050175535A1 (CV Therapeutics, Inc., priority 2000, published 2005).
# What was measured:
# [1] = biological target: T1, human A2B adenosine receptors (Homo sapiens, UniProt P29275); experiment: cAMP accumulation in HEK-293 cells expressing A2B adenosine receptors; format: cell-based; conditions: up to 100 μM
# T1 construct: expressed in transfected cells
# T1 sequence (P29275 1-332): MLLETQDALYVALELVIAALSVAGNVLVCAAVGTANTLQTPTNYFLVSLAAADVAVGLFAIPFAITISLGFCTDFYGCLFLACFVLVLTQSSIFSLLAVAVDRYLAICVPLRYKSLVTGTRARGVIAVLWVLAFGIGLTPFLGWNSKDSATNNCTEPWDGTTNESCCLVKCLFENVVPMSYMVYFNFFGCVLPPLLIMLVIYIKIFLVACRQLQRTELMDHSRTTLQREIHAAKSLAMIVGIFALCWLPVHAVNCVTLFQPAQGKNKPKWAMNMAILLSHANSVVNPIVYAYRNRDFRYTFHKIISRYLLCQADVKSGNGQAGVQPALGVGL
# A1 adenosine receptor = biological target: T2, A1 adenosine receptor (Rattus norvegicus, UniProt P25099); experiment: A-V nodal conduction time (negative dromotropic effect) in isolated rat hearts
# T2 construct: Effect of concentration on AV conduction time and coronary conductance in isolated rat hearts; tissue Simonsen Laboratories (Gilroy, Calif.); host or cells: isolated perfused rat heart (Sprague Dawley)
# T2 sequence (P25099 1-326): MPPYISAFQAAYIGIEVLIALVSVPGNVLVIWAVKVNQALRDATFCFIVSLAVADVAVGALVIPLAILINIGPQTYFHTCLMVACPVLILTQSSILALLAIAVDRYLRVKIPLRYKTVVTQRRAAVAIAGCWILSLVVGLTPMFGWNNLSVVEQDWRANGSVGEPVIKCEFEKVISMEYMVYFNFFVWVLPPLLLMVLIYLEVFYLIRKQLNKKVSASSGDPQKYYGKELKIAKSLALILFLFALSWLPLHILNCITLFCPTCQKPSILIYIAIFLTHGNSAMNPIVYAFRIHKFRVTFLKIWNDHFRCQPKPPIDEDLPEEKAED
# [2] = system: rat isolated perfused heart; experiment: Reversal time of coronary vasodilation in rat isolated perfused hearts; conditions: bolus, rat isolated perfused heart;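 further: each agonist bolused at its minimal concentration giving equal maximal coronary conductance rise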
# [3] = Coronary and peripheral artery blood flow velocity, HR and MAP in anesthetized closed-chest dogs; format: in vivo; set-up: APV: unit not given here; conditions: for APV / MAP / HR: CVT-3146 (1 ug/kg)
# Procedure: Mongrel dogs (either sex, 17-21 kg; n=6) were obtained from a local vendor (Barton, Oxford, N.J.). Blood flow velocity in the coronary and cranial circumflex arteries was measured using Doppler transducer-tipped guide wires 0.014″ in diameter (FloWire®, model 1400J) purchased from Cardiometrics, Inc., Mountain View, Calif. For the positioning of the FloWire, a Judkins left coronary guiding catheter (JL3.5, 8F; Cordis) was used. Vascular arterial angiography was performed using Hypaque-76 contrast fluid (Bracco Diagnostics, Inc., Princeton, N.J.; Lot #9H28899) and a mobile fluoroscopic unit (Philips, BV 29). Systemic arterial blood pressure was measured using an electronic transducer-tipped catheter (Millar).
# Following the administration of heparin (20 U/kg+100 U/hr), the pressure transducer-tipped catheter was introduced through the left femoral artery and positioned in the descending aorta. The Doppler FloWire was introduced through the right femoral artery. A peripheral vein was cannulated for the administration of all drugs. […] The sequence of positioning of the Doppler catheter was reversed in consecutive experiments. […] All parameters were allowed to recover (>30 min) to their respective baseline values between two consecutive drug administrations. […] The effect of adenosine on both coronary and peripheral artery APV was studied in five of the six dogs.
# The following parameters were monitored and recorded: Average peak coronary and peripheral artery blood flow velocity (APV), mean arterial blood pressure (MAP) (mmHg), and sinus cycle length (SCL; msec). Differences in measure parameters were tested for statistical significance using ANOVA and Student's t test corrected for multiple measurements. Data are expressed as the mean±SEM.
compound,measurement,setting,value
CCCCCn1cc(-c2nc(N)c3ncn(C4O[C@@H](CO)[C@H](O)[C@@H]4O)c3n2)cn1 (stereo partly drawn) [CVT-3033],effect on cellular cAMP content,[1],neither CVT-3033 nor CVT-3146 had any detectable effects
same,effect on A-V nodal conduction time,A1 adenosine receptor,did not prolong A-V nodal conduction time
same,"t0.5, time to 50% reversal of the increase in coronary conductance",[2],3.4 ± 0.5 min
same,"t0.9, time to 90% reversal of the increase in coronary conductance",[2],8.4 ± 2.2 min
CNC(=O)c1cnn(-c2nc(N)c3ncn(C4O[C@@H](CO)[C@H](O)[C@@H]4O)c3n2)c1 (stereo partly drawn) [CVT-3146],effect on cellular cAMP content,[1],neither CVT-3033 nor CVT-3146 had any detectable effects
same,effect on A-V nodal conduction time,A1 adenosine receptor,did not prolong A-V nodal conduction time
same,time for all parameters to return to baseline post injection,"[3]; CVT-3146 1 μg/kg, adenosine 200 or 300 μg/kg iv bolus, anesthetized dogs",≤ 5 min
same,APV,"[3]; Coronary, time 1′, Baseline 49 ± 7",100 ± 12
same,MAP,"[3]; Coronary, time 1′, Baseline 128 ± 7",112 ± 7 mmHg
same,HR,"[3]; Coronary, time 1′, Baseline 171 ± 8",186 ± 7
same,APV,"[3]; Coronary, time 1.5′, Baseline 49 ± 7",97 ± 11
same,MAP,"[3]; Coronary, time 1.5′, Baseline 128 ± 7",110 ± 7 mmHg
same,HR,"[3]; Coronary, time 1.5′, Baseline 171 ± 8",186 ± 7
same,APV,"[3]; Coronary, time 2′, Baseline 49 ± 7",88 ± 11
same,MAP,"[3]; Coronary, time 2′, Baseline 128 ± 7",110 ± 7 mmHg
same,HR,"[3]; Coronary, time 2′, Baseline 171 ± 8",185 ± 7
same,APV,"[3]; Coronary, time 3′, Baseline 49 ± 7",81 ± 11
same,MAP,"[3]; Coronary, time 3′, Baseline 128 ± 7",110 ± 6 mmHg
same,HR,"[3]; Coronary, time 3′, Baseline 171 ± 8",185 ± 7
same,APV,"[3]; Coronary, time 4′, Baseline 49 ± 7",75 ± 11
same,MAP,"[3]; Coronary, time 4′, Baseline 128 ± 7",110 ± 6 mmHg
same,HR,"[3]; Coronary, time 4′, Baseline 171 ± 8",183 ± 8
same,APV,"[3]; Coronary, time 5′, Baseline 49 ± 7",72 ± 11
same,MAP,"[3]; Coronary, time 5′, Baseline 128 ± 7",112 ± 6 mmHg
same,HR,"[3]; Coronary, time 5′, Baseline 171 ± 8",183 ± 8
same,APV,"[3]; Coronary, time 6′, Baseline 49 ± 7",65 ± 11
same,MAP,"[3]; Coronary, time 6′, Baseline 128 ± 7",113 ± 6 mmHg
same,HR,"[3]; Coronary, time 6′, Baseline 171 ± 8",182 ± 8
same,APV,"[3]; Coronary, time 7′, Baseline 49 ± 7",63 ± 12
same,MAP,"[3]; Coronary, time 7′, Baseline 128 ± 7",115 ± 6 mmHg
same,HR,"[3]; Coronary, time 7′, Baseline 171 ± 8",181 ± 8
same,APV,"[3]; Coronary, time 8′, Baseline 49 ± 7",55 ± 11
same,MAP,"[3]; Coronary, time 8′, Baseline 128 ± 7",117 ± 6 mmHg
same,HR,"[3]; Coronary, time 8′, Baseline 171 ± 8",180 ± 8
same,APV,"[3]; Coronary, time 9′, Baseline 49 ± 7",55 ± 11
same,MAP,"[3]; Coronary, time 9′, Baseline 128 ± 7",119 ± 6 mmHg
same,HR,"[3]; Coronary, time 9′, Baseline 171 ± 8",177 ± 9
same,APV,"[3]; Coronary, time 10′, Baseline 49 ± 7",53 ± 11
same,MAP,"[3]; Coronary, time 10′, Baseline 128 ± 7",120 ± 6 mmHg
same,HR,"[3]; Coronary, time 10′, Baseline 171 ± 8",176 ± 9
same,APV,"[3]; Coronary, time 10″, Baseline 49 ± 7",84 ± 4
same,HR,"[3]; Coronary, time 10″, Baseline 171 ± 8",177 ± 8
same,APV,"[3]; Coronary, time 20″, Baseline 49 ± 7",106 ± 8
same,MAP,"[3]; Coronary, time 20″, Baseline 128 ± 7",116 ± 9 mmHg
same,HR,"[3]; Coronary, time 20″, Baseline 171 ± 8",186 ± 9
same,APV,"[3]; Coronary, time 30″, Baseline 49 ± 7",109 ± 10
same,MAP,"[3]; Coronary, time 30″, Baseline 128 ± 7",117 ± 7 mmHg
same,HR,"[3]; Coronary, time 30″, Baseline 171 ± 8",188 ± 7
same,APV,"[3]; Peripheral, time 1′, Baseline 34 ± 8",42 ± 4
same,MAP,"[3]; Peripheral, time 1′, Baseline 116 ± 8",102 ± 6 mmHg
same,HR,"[3]; Peripheral, time 1′, Baseline 162 ± 9",182 ± 7
same,APV,"[3]; Peripheral, time 1.5′, Baseline 34 ± 8",42 ± 4
same,MAP,"[3]; Peripheral, time 1.5′, Baseline 116 ± 8",99 ± 7 mmHg
same,HR,"[3]; Peripheral, time 1.5′, Baseline 162 ± 9",184 ± 7
same,APV,"[3]; Peripheral, time 2′, Baseline 34 ± 8",40 ± 4
same,MAP,"[3]; Peripheral, time 2′, Baseline 116 ± 8",98 ± 7 mmHg
same,HR,"[3]; Peripheral, time 2′, Baseline 162 ± 9",187 ± 8
same,APV,"[3]; Peripheral, time 3′, Baseline 34 ± 8",40 ± 4
same,MAP,"[3]; Peripheral, time 3′, Baseline 116 ± 8",97 ± 7 mmHg
same,HR,"[3]; Peripheral, time 3′, Baseline 162 ± 9",187 ± 8
same,APV,"[3]; Peripheral, time 4′, Baseline 34 ± 8",39 ± 4
same,MAP,"[3]; Peripheral, time 4′, Baseline 116 ± 8",100 ± 6 mmHg
same,HR,"[3]; Peripheral, time 4′, Baseline 162 ± 9",186 ± 8
same,APV,"[3]; Peripheral, time 5′, Baseline 34 ± 8",37 ± 5
same,MAP,"[3]; Peripheral, time 5′, Baseline 116 ± 8",101 ± 6 mmHg
same,HR,"[3]; Peripheral, time 5′, Baseline 162 ± 9",185 ± 8
same,APV,"[3]; Peripheral, time 10″, Baseline 34 ± 8",34 ± 4
same,MAP,"[3]; Peripheral, time 10″, Baseline 116 ± 8",114 ± 9 mmHg
same,HR,"[3]; Peripheral, time 10″, Baseline 162 ± 9",167 ± 6
same,APV,"[3]; Peripheral, time 20″, Baseline 34 ± 8",38 ± 4
same,MAP,"[3]; Peripheral, time 20″, Baseline 116 ± 8",107 ± 8 mmHg
same,HR,"[3]; Peripheral, time 20″, Baseline 162 ± 9",177 ± 7
same,APV,"[3]; Peripheral, time 30″, Baseline 34 ± 8",41 ± 4
same,MAP,"[3]; Peripheral, time 30″, Baseline 116 ± 8",111 ± 6 mmHg
same,HR,"[3]; Peripheral, time 30″, Baseline 162 ± 9",183 ± 8
